From JPH07501070A, “3−ピリジノール誘導体およびその医薬的使用” (スミスクライン・ビーチャム・パブリック・リミテッド・カンパニー, priority 1991, dated 1993)
pIC50: −log10 of the molar value.

Tested on: guinea pig trachea [モルモット・気管]
Experiment: Bronchodilation in vitro (spontaneous tension of tracheal spirals)
Settings: Cavia porcellus, Krebs solution, cumulative addition, read-out: IC50 (concentration inhibiting spontaneously generated tension by 50%)

`CCOP(=O)(O)c1ncc(-c2ccc3ccccc3c2)cc1O` [実施例1, [5−(2−ナフチル)−3−ヒドロキシ−2−ピリジル]ホスホン酸エチル] showed a pIC50 of 4.00.
